Columns and labels:
[1] = target: T1, Hepatic sodium/bile acid cotransporter (Rattus norvegicus, UniProt P26435); assay: TP_TRANSPORTER: Western in vivo, liver of SD rat; assay type: functional, organism-based, Sprague-Dawley
T1 sequence (P26435 whole entry): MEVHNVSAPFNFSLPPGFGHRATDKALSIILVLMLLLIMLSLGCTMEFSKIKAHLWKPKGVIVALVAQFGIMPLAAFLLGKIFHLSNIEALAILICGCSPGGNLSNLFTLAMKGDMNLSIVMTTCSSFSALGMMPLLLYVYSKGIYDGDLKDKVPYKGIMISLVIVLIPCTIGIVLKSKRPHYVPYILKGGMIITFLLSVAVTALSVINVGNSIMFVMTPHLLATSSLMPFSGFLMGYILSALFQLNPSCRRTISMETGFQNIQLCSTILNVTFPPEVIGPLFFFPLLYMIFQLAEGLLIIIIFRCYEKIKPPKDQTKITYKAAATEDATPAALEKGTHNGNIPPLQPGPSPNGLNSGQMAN

[2] = target: T1, Hepatic sodium/bile acid cotransporter; assay: TP_TRANSPORTER: Northern blot in vivo, liver of SD rat; assay type: functional, organism-based, Sprague-Dawley

In the case of `CCCCCCCCCCCCCC(=O)OC(CCCCCCCCCCC)CC(=O)OC1C(NC(=O)CC(CCCCCCCCCCC)OC(=O)CCCCCCCCCCC)C(OC2CC(OC(=O)CC(O)CCCCCCCCCCC)C(NC(=O)CC(O)CCCCCCCCCCC)C(O)O2)OC(CO)C1OP(=O)(O)O` (configuration not stated), the Activity [1] is reported as “inducer [Decrease]” and the Activity [2] is reported as “inducer [Decrease]”.
